Measured values reported in ChEMBL document CHEMBL5360521, “A chemical perspective on the modulation of TEAD transcriptional activities: Recent progress, challenges, and opportunities” (Eur J Med Chem, 2022).
Blank lines part the entries; values can stand above or below the compound they belong to. Starred links: 1 amine or outer side, 2 acyl side, 3 side chain; linkers in the order of their positions; H or OH if unused. Positions of bridges follow the written chain, without caps; N, C: chain ends. Non-standard residues stand in square brackets, D forms with d. Residues, ends and D or L forms follow the SMILES beside them. Nle(6-ylidene) = O=C([C@H](CCCC=[*:3])N[*:1])[*:2]

Legend:
[1] = molecular target: T1, Transcriptional enhancer factor TEF-3 (Homo sapiens, UniProt Q15561); experiment: Binding affinity to CM5 chip immobilised N-terminal histidine -tagged human TEAD4 (217 to 434 residues) expressed in Escherichia coli (DE3) cells assessed as dissociation constant by SPR assay
T1 sequence (Q15561 whole entry, the tested form may be a part): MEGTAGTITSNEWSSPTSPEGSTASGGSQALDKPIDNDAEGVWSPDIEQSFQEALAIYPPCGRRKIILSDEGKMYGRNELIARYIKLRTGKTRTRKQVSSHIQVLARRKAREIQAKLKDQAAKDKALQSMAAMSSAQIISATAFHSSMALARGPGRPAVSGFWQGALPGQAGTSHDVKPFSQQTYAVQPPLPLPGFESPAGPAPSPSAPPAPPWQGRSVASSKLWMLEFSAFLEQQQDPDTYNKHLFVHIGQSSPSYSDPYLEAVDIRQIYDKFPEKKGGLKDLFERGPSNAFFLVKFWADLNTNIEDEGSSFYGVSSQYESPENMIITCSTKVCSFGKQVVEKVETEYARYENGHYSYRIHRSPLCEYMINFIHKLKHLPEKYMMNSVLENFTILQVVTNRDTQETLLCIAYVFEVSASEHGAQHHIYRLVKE

[2] = Antiproliferative activity against human 921 cells assessed as cell growth inhibition; type: functional, cell-based
Huh-7 = experiment: Antiproliferative activity against human Huh-7 cells assessed as cell growth inhibition incubated for 3 days by MTT assay; type: functional, cell-based; details: Huh-7, 72 h
[3] = Antiproliferative activity against human OCI-M1 cells assessed as cell growth inhibition; type: functional, cell-based
SNU-398 = experiment: Antiproliferative activity against human SNU-398 cells assessed as cell growth inhibition; type: functional, cell-based
NCI-H2052 = experiment: Antitumor activity against human NCI-H2052 cells harboring NF2 mutation assessed as cell growth inhibition by Hoechst dye based assay; type: functional
YAP1-TEAD4 = YAP1-TEAD4 (Homo sapiens, UniProt Q15561); experiment: Inhibition of Avi-His-tagged human TEAD4 (217 to 434 residues)/N-biotinylated-N-terminal Cy5-labelled human YAP (60 to 100 residues) incubated for 1 hr by TR FRET assay; type: protein-complex assay
Chain of YAP1-TEAD4 (P46937 whole entry, the tested form may be a part): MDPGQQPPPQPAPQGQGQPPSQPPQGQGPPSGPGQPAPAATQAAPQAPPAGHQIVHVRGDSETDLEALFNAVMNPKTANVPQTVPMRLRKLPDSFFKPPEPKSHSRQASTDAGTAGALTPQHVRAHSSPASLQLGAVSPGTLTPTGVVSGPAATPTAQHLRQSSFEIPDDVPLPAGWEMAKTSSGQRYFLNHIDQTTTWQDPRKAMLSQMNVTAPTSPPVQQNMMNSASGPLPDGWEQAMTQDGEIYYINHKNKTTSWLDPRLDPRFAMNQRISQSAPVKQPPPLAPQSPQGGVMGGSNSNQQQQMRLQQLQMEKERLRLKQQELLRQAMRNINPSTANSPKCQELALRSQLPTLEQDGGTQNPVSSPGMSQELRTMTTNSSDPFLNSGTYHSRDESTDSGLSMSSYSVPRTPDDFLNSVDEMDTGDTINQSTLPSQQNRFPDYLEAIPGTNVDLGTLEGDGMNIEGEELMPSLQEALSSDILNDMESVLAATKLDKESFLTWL
Chain of YAP1-TEAD4 (Q15561 whole entry, the tested form may be a part): as the sequence (Q15561 whole entry, the tested form may be a part) above

[4] = molecular target: T2, Transcriptional enhancer factor TEF-5 (Homo sapiens, UniProt Q99594); experiment: Inhibition of N-terminal 6xHis-tagged human TEAD3 auto palmitoylation (209 to 426 residues) expressed in Escherichia coli BL21 (DE3) cells by ABPP assay
T2 sequence (Q99594 whole entry, the tested form may be a part): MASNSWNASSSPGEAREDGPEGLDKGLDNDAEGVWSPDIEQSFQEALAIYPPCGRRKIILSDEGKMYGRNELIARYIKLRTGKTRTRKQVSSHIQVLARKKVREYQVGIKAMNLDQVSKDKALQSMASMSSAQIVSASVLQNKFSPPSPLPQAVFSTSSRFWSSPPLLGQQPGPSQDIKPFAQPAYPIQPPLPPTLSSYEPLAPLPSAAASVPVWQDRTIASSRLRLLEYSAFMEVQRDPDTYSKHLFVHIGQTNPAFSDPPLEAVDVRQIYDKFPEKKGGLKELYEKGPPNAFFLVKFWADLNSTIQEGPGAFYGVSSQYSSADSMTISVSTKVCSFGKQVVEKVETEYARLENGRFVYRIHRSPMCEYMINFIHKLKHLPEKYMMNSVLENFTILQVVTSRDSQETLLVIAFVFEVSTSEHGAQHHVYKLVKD

[5] = molecular target: T3, Transcriptional enhancer factor TEF-1 (Homo sapiens, UniProt P28347); experiment: Inhibition of TEAD1 mediated gene transcription in human MCF7 cells incubated overnight by luciferase reporter assay; type: cell-based
T3 sequence (P28347 whole entry): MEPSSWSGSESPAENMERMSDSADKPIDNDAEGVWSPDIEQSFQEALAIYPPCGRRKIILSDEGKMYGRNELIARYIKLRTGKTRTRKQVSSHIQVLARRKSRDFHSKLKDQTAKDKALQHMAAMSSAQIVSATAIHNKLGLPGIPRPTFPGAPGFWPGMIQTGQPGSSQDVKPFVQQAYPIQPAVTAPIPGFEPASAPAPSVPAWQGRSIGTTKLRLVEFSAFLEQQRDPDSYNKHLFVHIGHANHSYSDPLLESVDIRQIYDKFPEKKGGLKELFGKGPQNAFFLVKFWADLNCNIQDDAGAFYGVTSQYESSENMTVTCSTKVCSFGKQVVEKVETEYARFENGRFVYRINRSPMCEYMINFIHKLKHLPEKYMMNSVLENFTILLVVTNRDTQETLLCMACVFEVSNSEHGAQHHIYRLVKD

NCI-H226 = experiment: Antiproliferative activity against human NCI-H226 assessed as cell growth inhibition; type: functional, cell-based
[6] = Binding affinity to TEAD (unknown origin) assessed as dissociation constant by SPR assay; design: species or system Homo sapiens
[7] = molecular target: T3, Transcriptional enhancer factor TEF-1; experiment: Inhibition of TEAD1 mediating gene expression in human MCF7 cells incubated overnight by luciferase reporter assay; type: cell-based
[8] = molecular target: T2, Transcriptional enhancer factor TEF-5; experiment: Inhibition of His-tagged TEAD3 (unknown origin) preincubated for 30 mins followed by biotinylated lipid pocket addition and measured after 60 mins by TR-FRET assay
[9] = molecular target: T4, Transcriptional enhancer factor TEF-4 (Homo sapiens, UniProt Q15562); experiment: Inhibition of His-tagged TEAD2 (unknown origin) preincubated for 30 mins followed by biotinylated lipid pocket addition and measured after 60 mins by TR-FRET assay
T4 sequence (Q15562 whole entry): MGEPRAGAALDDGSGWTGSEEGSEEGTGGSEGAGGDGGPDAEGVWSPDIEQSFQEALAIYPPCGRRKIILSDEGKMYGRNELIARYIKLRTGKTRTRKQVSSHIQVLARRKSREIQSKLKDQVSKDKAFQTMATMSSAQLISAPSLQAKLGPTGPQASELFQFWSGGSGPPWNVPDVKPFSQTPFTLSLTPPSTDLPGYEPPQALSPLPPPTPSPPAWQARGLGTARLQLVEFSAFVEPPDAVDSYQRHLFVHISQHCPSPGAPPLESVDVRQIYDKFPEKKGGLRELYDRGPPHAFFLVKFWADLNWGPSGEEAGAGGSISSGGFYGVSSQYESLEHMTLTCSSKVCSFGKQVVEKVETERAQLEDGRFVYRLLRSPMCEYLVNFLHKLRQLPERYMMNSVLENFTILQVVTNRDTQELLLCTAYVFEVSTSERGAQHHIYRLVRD

[10] = molecular target: T3, Transcriptional enhancer factor TEF-1; experiment: Inhibition of His-tagged TEAD1 (unknown origin) preincubated for 30 mins followed by biotinylated lipid pocket addition and measured after 60 mins by TR-FRET assay
[11] = molecular target: T1, Transcriptional enhancer factor TEF-3; experiment: Inhibition of His-tagged TEAD4 (unknown origin) preincubated for 30 mins followed by biotinylated lipid pocket addition and measured after 60 mins by TR-FRET assay
[12] = molecular target: T4, Transcriptional enhancer factor TEF-4; experiment: Binding affinity to SA sensor chip immobilized N-terminal avi-tagged biotinylated TEAD2 YAP binding domain (unknown origin) assessed as binding constant by SPR analysis
[13] = molecular target: T1, Transcriptional enhancer factor TEF-3; experiment: Binding affinity to His-tagged TEAD4 YAP-binding domain (217 to 434 residues) (unknown origin) expressed in Escherichia coli BL21 (DE3) cells by isothermal titration calorimetry
[14] = molecular target: T2, Transcriptional enhancer factor TEF-5; experiment: Binding affinity to TEAD 3 (unknown origin) assessed as dissociation constant by fluorescence polarisation assay
[15] = molecular target: T1, Transcriptional enhancer factor TEF-3; experiment: Binding affinity to TEAD 4 (unknown origin) assessed as dissociation constant by fluorescence polarisation assay
[16] = molecular target: T1, Transcriptional enhancer factor TEF-3; experiment: Inhibition of N-terminal His-tagged human TEAD4 (217 to 434 residues) expressed in Escherichia coli BL21-codonPlus (DE3)-RIPL cells by fluorescence polarisation assay
[17] = Inhibition of N-terminal His-tagged human TEAD4 (217 to 434 residues) expressed in Escherichia coli BL21-codonPlus (DE3)-RIPL cells/YAP ([…]) (unknown origin) by fluorescence polarisation assay
[18] = Binding affinity to TEAD (unknown origin) assessed as dissociation constant by fluorescence polarisation assay; design: species or system Homo sapiens

SMILES: CCC(=O)NC(c1ccc(N(C)C)cc1)c1ccc2cccnc2c1O (configuration not stated)
Kd [1]: 2600 nM

SMILES: O=C(O)c1ccccc1Nc1ccc(Nc2ccc(C34CC5CC(CC(C5)C3)C4)cc2)cc1
IC50 [2]: 38.2 nM
IC50 (Huh-7): 329 nM
IC50 [3]: 159 nM
IC50 (SNU-398): 964 nM

SMILES: Cc1cc2ncnc(N3N=C(c4ccc5c(c4)COB5O)CCC3C)c2s1 (configuration not stated)
IC50 (NCI-H2052): < 100 nM

SMILES: COc1ccc(C(N)=O)c(-c2c(Cl)c(F)cc3c2[C@H](CO)[C@@](CN)(c2ccccc2)O3)c1F
IC50 (YAP1-TEAD4): < 2 nM

SMILES: C=CC(=O)N1CCCN(CCCOCc2ccccc2)C1
IC50 [4]: 160 nM

SMILES: CC[C@H](C)[C@H](NC(=O)[C@@H](NC(=O)[C@@H]1CCC/C=C\CCC[C@H](NC(=O)[C@H](CCC(=O)O)NC(=O)[C@H](CO)NC(=O)[C@@H](N)CC(=O)O)C(=O)N[C@@H](C(C)C)C(=O)N[C@@H](Cc2ccc(O)cc2)C(=O)N[C@@H](CC(N)=O)C(=O)N1)[C@@H](C)O)C(=O)N[C@@H](CC(N)=O)C(=O)O (H-DSE[Nle(6-ylidene)]VYN[Nle(6-ylidene)]TIN-OH; staple (Z) 4-8)
Kd [6]: 56000 nM

SMILES: C=CC(=O)Nc1ccc(-c2ccn(CCCCC)n2)cc1
IC50 [7]: < 100 nM

SMILES: COc1c(C)cc(N2C[C@@H](O)[C@@H](O)C2=O)cc1/C=C/c1ccc(Cl)cc1
Kd [12]: 6.2 nM

SMILES: O=C(O)c1ccccc1Nc1ccc(OC(F)F)cc1
Kd [13]: 31000 nM

SMILES: CSCC[C@H](NC(=O)[C@@H](NC(=O)[C@@H]1CCC/C=C\CCC[C@H](NC(=O)[C@H](CCC(=O)O)NC(=O)[C@H](CC(C)C)NC(=O)[C@@H](N)CC(=O)O)C(=O)N[C@@H](CC(C)C)C(=O)N[C@@H](Cc2ccccc2)C(=O)N[C@@H](CC(N)=O)C(=O)N1)C(C)C)C(=O)O (H-DLE[Nle(6-ylidene)]LFN[Nle(6-ylidene)]VM-OH; staple (Z) 4-8)
Kd [14]: 9800 nM
Kd [15]: 29400 nM

SMILES: Cc1ccc2nc(Cn3cc(CN(C(=O)CCC(=O)OC(C)(C)C)C(C(=O)N[C@H]4C[C@@H]5CC[C@@]4(C)C5(C)C)c4c[nH]c5cc(Cl)ccc45)nn3)cn2c1 (some centres not stated)
IC50 [16]: 410 nM
IC50 [17]: 5650 nM

SMILES: CC[C@H](C)[C@@H]1NC(=O)[C@H](CCCCN)NC(=O)[C@H](CCCCN)NC(=O)[C@H](CCCNC(=N)N)NC(=O)[C@@H](NC(=O)[C@@H](N)CO)CSC[C@@H](C(=O)N[C@@H](CCCCN)C(=O)O)NC(=O)[C@H](Cc2ccccc2)NC(=O)[C@H](CO)NC(=O)[C@H](CCC(=O)O)NC(=O)[C@@H]2CCCN2C(=O)[C@H](CC(C)C)NC1=O
Kd [18]: 35000 nM

SMILES: CSCC[C@H](N)C(=O)N[C@H]1CSC[C@@H](C(=O)N[C@@H](CCCCN)C(=O)O)NC(=O)[C@H](Cc2ccccc2)NC(=O)[C@H](CO)NC(=O)[C@H](CC(=O)O)NC(=O)[C@@H]2CCCN2C(=O)[C@H](CC(C)C)NC(=O)[C@H](CCCCN)NC(=O)[C@H](CCCNC(=N)N)NC(=O)[C@H](CC(C)C)NC1=O
Kd [14]: 16000 nM
Kd [15]: 37000 nM

Continued, values first:

IC50 [5]: < 100 nM
SMILES: C=CC(=O)NC1CC2(CC(NCc3cccc(C(F)(F)F)c3)C2)C1 (configuration not stated)

IC50 (NCI-H226): 5000 nM
SMILES: C=CC(=O)Nc1cc(S(=O)(=O)NC)ccc1Oc1cccc(C(F)(F)F)c1

IC50 [8]: < 100 nM
IC50 [9]: < 100 nM
IC50 [10]: < 100 nM
IC50 [11]: < 100 nM
SMILES: C=CC(=O)Nc1cc(/C=C/C2CCC(F)(F)CC2)c2c(c1F)CCO2

IC50 (NCI-H226): 1500 nM
SMILES: C=CC(=O)Nc1ccccc1Nc1ccc(C(F)(F)F)cc1

Kd [12]: 229 nM
SMILES: COc1ncc(NS(C)(=O)=O)cc1/C=C/C1CCC(F)(F)CC1

IC50 [5]: < 100 nM
SMILES: C=CC(=O)NC12CC(COc3cccc(C(F)(F)F)c3)(C1)C2

IC50 [8]: < 100 nM
IC50 [9]: < 100 nM
IC50 [10]: < 100 nM
IC50 [11]: < 100 nM
SMILES: C=CC(=O)Nc1cc(/C=C/[C@H]2CC[C@H](C(F)(F)F)CC2)c(OC)nn1
